From patent publication US10793547B2, “Modulator of the cystic fibrosis transmembrane conductance regulator, pharmaceutical compositions, methods of treatment, and process for making the modulator” (Vertex Pharmaceuticals Incorporated, priority 2016, dated 2020)

Experiments:
F508del-CFTR = target: T1, F508del-CFTR (Homo sapiens, UniProt P13569, DEL508-508); test: Membrane potential optical (FLIPR) assay for F508del-CFTR modulators in NIH 3T3 cells; format: cell-based; details: NIH 3T3 cells expressing F508del; assay A1; read-out: CFTRdF508 Cor 3T3 FLIPR 384 CFTRdF508 MP 3T3 770 EC50
T1 construct: expressed in transfected cells
T1 sequence (P13569 with tags, fused parts or gaps DEL508-508): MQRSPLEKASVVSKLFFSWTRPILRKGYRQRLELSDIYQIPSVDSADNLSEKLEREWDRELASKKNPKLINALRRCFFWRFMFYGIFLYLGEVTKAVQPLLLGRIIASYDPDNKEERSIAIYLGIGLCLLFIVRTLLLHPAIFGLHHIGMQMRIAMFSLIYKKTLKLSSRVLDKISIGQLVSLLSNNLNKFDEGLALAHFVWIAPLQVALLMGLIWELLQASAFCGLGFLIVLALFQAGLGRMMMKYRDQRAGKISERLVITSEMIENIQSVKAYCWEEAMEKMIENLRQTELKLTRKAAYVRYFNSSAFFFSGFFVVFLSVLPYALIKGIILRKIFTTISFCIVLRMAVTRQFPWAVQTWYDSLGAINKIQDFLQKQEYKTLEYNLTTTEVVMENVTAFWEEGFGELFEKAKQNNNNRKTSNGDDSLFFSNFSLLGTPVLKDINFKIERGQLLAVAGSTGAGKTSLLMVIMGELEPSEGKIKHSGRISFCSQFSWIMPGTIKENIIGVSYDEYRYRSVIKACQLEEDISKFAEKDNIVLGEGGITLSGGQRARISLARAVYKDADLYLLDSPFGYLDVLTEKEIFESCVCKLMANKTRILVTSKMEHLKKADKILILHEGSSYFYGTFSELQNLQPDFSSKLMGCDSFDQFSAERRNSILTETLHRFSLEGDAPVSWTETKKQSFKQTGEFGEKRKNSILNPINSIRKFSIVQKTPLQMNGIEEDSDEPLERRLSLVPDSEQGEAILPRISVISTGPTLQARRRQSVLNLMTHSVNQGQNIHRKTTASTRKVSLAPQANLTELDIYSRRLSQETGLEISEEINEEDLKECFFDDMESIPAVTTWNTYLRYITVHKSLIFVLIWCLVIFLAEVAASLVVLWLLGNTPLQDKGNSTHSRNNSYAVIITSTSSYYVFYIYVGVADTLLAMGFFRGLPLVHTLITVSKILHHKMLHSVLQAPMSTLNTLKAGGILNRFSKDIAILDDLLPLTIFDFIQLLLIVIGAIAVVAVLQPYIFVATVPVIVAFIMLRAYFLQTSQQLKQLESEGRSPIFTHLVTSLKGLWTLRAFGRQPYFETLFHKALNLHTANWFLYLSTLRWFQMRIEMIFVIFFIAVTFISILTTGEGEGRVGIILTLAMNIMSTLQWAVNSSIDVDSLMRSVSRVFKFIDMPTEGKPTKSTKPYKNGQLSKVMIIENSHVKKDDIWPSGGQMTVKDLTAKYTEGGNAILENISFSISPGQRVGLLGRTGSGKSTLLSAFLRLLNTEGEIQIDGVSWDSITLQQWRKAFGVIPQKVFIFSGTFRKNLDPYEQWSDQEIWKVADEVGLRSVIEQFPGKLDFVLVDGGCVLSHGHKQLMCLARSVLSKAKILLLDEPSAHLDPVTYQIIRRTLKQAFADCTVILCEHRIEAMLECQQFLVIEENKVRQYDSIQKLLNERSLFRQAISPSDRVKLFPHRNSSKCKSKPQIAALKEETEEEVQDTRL
Source text: Membrane Potential Optical Methods for Assaying Properties of F508del-CFTR Modulators
The assay utilizes fluorescent voltage sensing dyes to measure changes in membrane potential using a fluorescent plate reader (e.g., FLIPR III, Molecular Devices, Inc.) as a readout for increase in functional F508del in NIH 3T3 cells. The driving force for the response is the creation of a chloride ion gradient in conjunction with channel activation and concurrent with compound treatment by a single liquid addition step after the cells have previously been loaded with a voltage sensing dye.
A1. Identification of F508del-CFTR Modulators
To identify modulators of F508del, a fluorescence based HTS assay format was developed. This HTS assay utilizes fluorescent voltage sensing dyes to measure changes in membrane potential on the FLIPR III as a measurement for increase in gating (conductance) of F508del NIH 3T3 cells. The driving force for the response is the creation of a chloride ion gradient in conjunction with channel activation and concurrent with compound treatment by a single liquid addition step after the cells have previously been loaded with a voltage sensing dye.
Bath Solution #1: (in mM) NaCl 160, KCl 4.5, CaCl2 2, MgCl2 1, HEPES 10, pH 7.4 with NaOH, Glucose 10.
Chloride-free bath solution: Chloride salts in Bath Solution #1 (above) are substituted with gluconate salts.
NIH3T3 mouse fibroblasts stably expressing F508del were used for optical measurements of membrane potential. The cells were maintained at 37° C. in 5% CO2 and 90% humidity in Dulbecco's modified Eagle's medium supplemented with 2 mM glutamine, 10% fetal bovine serum, 1×NEAA, β-ME, 1× pen/strep, and 25 mM HEPES in 175 cm^2 culture flasks. For all optical assays, the cells were seeded at 12,000 cells/well in 384-well matrigel-coated plates and cultured for 18-24 hrs at 37° C. for the potentiator assay. For the correction assay, the cells were cultured at 37° C. with and without compounds for 18-24 hours.

human PXR = target: T2, human PXR (Homo sapiens, UniProt O75469); test: PXR assay: PXR mediated CYP3A4 induction in DPX-2 cell line; format: cell-based; details: DPX-2 cells
T2 construct: host or cells: DPX-2 cell line (derived from HepG2)
T2 sequence (O75469 1-434): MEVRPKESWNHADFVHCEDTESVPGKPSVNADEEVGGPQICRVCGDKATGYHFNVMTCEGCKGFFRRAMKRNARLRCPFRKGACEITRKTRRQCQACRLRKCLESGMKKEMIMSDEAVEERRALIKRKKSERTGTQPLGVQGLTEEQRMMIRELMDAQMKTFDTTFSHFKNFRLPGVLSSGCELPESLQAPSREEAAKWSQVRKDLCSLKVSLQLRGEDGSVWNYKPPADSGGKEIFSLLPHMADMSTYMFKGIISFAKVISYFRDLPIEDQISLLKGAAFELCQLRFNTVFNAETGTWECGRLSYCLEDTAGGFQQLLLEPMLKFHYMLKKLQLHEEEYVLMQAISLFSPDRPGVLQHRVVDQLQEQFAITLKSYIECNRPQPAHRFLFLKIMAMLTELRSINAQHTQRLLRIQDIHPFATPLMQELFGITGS
Procedure: D. Experimental Protocol for PXR Assay
The propensity for PXR mediated CYP3A4 induction is assessed using the DPX-2 cell line in vitro. This cell line, which has been licensed from Puracyp Inc. was derived from HepG2 cells and has been stably transfected with genes encoding human PXR as well as a modified luciferase reporter linked to the CYP3A4 promoter region and related distal and proximal enhancers.
The assay is run in 384 well format and each test article is administered in 11 doses ranging from 0.1 to 60 μM. On day 1, DPX-2 cells which have previously been expanded in-house and cryopreserved are thawed and seeded in tissue culture plates. The following day, media is changed and cells are cultured in media containing test article, vehicle control or the positive control compound, the clinically validated CYP3A4 inducer rifampicin. Cells are cultured in the presence of test article for 48 hours and then cell viability is assessed using fluorescence based assay (Cell Titer-Fluor, Promega) with an EnVision Plate Reader (PerkinElmer). Subsequently, CYP3A4 transactivation, which is proportional to luciferase activity, is measured by reading luminescense using the Promega One-Glo reagent system using the same plate reader.
Data processing within the Genedata software package allows reporting of max fold induction compared to vehicle control, an EC50 value for CYP3A4 inducers and an 11 point-dose response curve.

[1] = MDCK-Wild Type permeability, 96 well + 0.1% BSA; format: in vitro ADME; details: dog, MDCK, A-B direction, read-out: MDCK-Wild Type-Permeability 96 well + 0.1% BSA Papp compound (A-B)
Rat hepatocytes = test: Hepatocyte clearance, rat hepatocytes; format: in vitro ADME; details: percent unchanged

EC50 (F508del-CFTR)	CYP3A4 Induction-PXR human PXR internal Max % Activity (human PXR)	Papp A→B [1]	Hepatocyte clearance-Rat Rat hepatocytes CL pct_unchanged (Rat hepatocytes)	Structure (SMILES)
400 nM	13%	3.9 ×10⁻⁶ cm/s	10%	Cc1nn(C)c(C)c1S(=O)(=O)NC(=O)c1ccc(-n2ccc(OCC3(C(F)(F)F)CC3)n2)nc1N1C[C@@H](C)CC1(C)C [Compound 16, 6-[3-[[1-(trifluoromethyl)cyclopropyl]methoxy]pyrazol-1-yl]-N-(1,3,5-trimethylpyrazol-4-yl)sulfonyl-2-[(4S)-2,2,4-trimethylpyrrolidin-1-yl]pyridine-3-carboxamide]
170 nM	3%	3.8 ×10⁻⁶ cm/s	19%	Cc1nn(C)c(C)c1S(=O)(=O)NC(=O)c1ccc(-n2ccc(OCC(C)(C)C(F)(F)F)n2)nc1N1C[C@@H](C)CC1(C)C [Compound 17, 6-[3-(3,3,3-trifluoro-2,2-dimethyl-propoxy)pyrazol-1-yl]-N-(1,3,5-trimethylpyrazol-4-yl)sulfonyl-2-[(4S)-2,2,4-trimethylpyrrolidin-1-yl]pyridine-3-carboxamide]
50 nM	5%	1.1 ×10⁻⁶ cm/s	30%	Cc1nn(C)cc1S(=O)(=O)NC(=O)c1ccc(-n2ccc(OCC3(C(F)(F)F)CC3)n2)nc1N1CC(C(C)(C)C)CC1(C)C (single isomer, unassigned) [Compound 54, 2-(4-tert-butyl-2,2-dimethyl-pyrrolidin-1-yl)-N-(1,3-dimethylpyrazol-4-yl)sulfonyl-6-[3-[[1-(trifluoromethyl)cyclopropyl]methoxy]pyrazol-1-yl]pyridine-3-carboxamide]
80 nM	4%	1.3 ×10⁻⁶ cm/s	20%	Cc1nn(C)cc1S(=O)(=O)NC(=O)c1ccc(-n2ccc(OCC3C[C@@H]4CC[C@H]3C4)n2)nc1N1C[C@@H](C)CC1(C)C (stereo partly drawn) [Compound 50, N-(1,3-dimethylpyrazol-4-yl)sulfonyl-6-[3-[[(1S,4R)-norbornan-2-yl]methoxy]pyrazol-1-yl]-2-[(4S)-2,2,4-trimethylpyrrolidin-1-yl]pyridine-3-carboxamide]
170 nM	5%	8 ×10⁻⁶ cm/s	0%	Cc1nn(C)c(C)c1S(=O)(=O)NC(=O)c1ccc(-n2ccc(OCCC3(C(F)(F)F)CC3)n2)nc1N1C[C@@H](C)CC1(C)C [Compound 18, 6-[3-[2-[1-(trifluoromethyl)cyclopropyl]ethoxy]pyrazol-1-yl]-N-(1,3,5-trimethylpyrazol-4-yl)sulfonyl-2-[(4S)-2,2,4-trimethylpyrrolidin-1-yl]pyridine-3-carboxamide]
